Patent publication US8846746B2, “Pyrazole compound and pharmaceutical use thereof” (Japan Tobacco Inc., priority 2011, dated 2014)

target: human SGLT1 (Homo sapiens (Human), UniProt P13866); experiment: SGLT1 inhibitory activity: 14C-AMG uptake into CHO-K1 cell line stably expressing human SGLT1; type: cell-based; conditions: 14C-AMG uptake, CHO-K1 cells expressing human SGLT1
Experimental: SGLT1 inhibitory activity of a test compound (IC50 value) was calculated based on an amount of intake into a cell of labeled α-methyl-D-glucopyranoside (^14C-AMG) which is transported by SGLT1.
1) Construction of Human SGLT1 Expression Plasmid
A DNA fragment containing human SGLT1, wherein NheI recognition and cleavage sequence was added upstream of a Kozac consensus sequence of the vector; and a stop codon (TAG) and a SalI recognition and cleavage sequence was added just downstream of a coding region of the human SGLT1, was amplified by PCR using pCMV6-hSGLT1 (OriGene) as a template. The purified DNA fragment was cleaved by restriction enzymes NheI and SalI, and the obtained fragment was ligated into pcDNA3.1 (+) which was cleaved by NheI and XhoI to construct human SGLT1 expression plasmid.
2) Establishment of Stable Cell Lines Expressing Human SGLT1
A human SGLT1 expression plasmid pcDNA-hSGLT1 was transfected into CHO-K1 cells by Lipofectamine-2000 (Invitrogen). The cells were cultured in the presence of G418 (Nakalai tesque) and drug-resistant cells were selected. A cell line having the highest S/B ratio of an amount of ^14C-AMG uptake per cell treated by solvent to an amount of ^14C-AMG uptake per cell treated by phlorizin (SGLT inhibitor) was selected from the drug-resistant cells as a stable cell lines expressing human SGLT1.
3) Evaluation of SGLT1 Inhibitory Activity
The stable cell line expressing human SGLT1 was seeded at 5×10^4 cells/well on BioCoat™ Poly-D-Lysine 96 well plate with Lid (Becton Dickinson and Company) and cultured at 37° C. under 5% CO2 overnight. The medium was replaced with 100 μL/well of a Na (−) buffer (140 mM choline chloride, 2 mM KCl, 1 mM MgCl2, 1 mM CaCl2, 10 mM HEPES, 5 mM Tris, pH7.4) followed by incubation for 20 minutes at 37° C. under 5% CO2. After removing the Na (−) buffer, a test compound solution which was prepared from Na (+) buffer (140 mM NaCl, 2 mM KCl, 1 mM MgCl2, 1 mM CaCl2, 10 mM HEPES, 5 mM Tris, pH7.4) containing BSA was added thereto at 40 μL/well. In addition, Na (+) buffer containing 8 kBq of ^14C-AMG and 2 mM AMG was added thereto at 40 μL/well, and was mixed well. Na (−) buffer containing BSA was added to a blank well at 40 μL/well and additionally adding a Na (+) buffer containing 8 kBq of ^14C-AMG and 2 mM AMG, and was mixed well. Cells were incubated for 1 hour at 37° C. under 5% CO2. After the reaction, the cells were washed twice with 100 μL/well of iced wash buffer (100 mM AMG, 140 mM choline chloride, 2 mM KCl, 1 mM MgCl2, 1 mM CaCl2, 10 mM HEPES, 5 mM Tris, pH7.4), then lysed in 50 μL/well of a 0.2N aqueous solution of NaOH. The cell lysate was transferred to OptiPlate96 (Perkin-Elmer) and 100 μL/well of MicroScint-40 (Perkin-Elmer) was dispensed. The radioactivity was counted by TOPCOUNT NXT (Perkin-Elmer).
A data was obtained by deducting the average value (CPM) of blank wells from the average value (CPM) of each treated well. The inhibition ratio (%) was calculated by the following formula: inhibition rate (%)=[(A−B)/A]×100, where A is a data of the solvent control, and B is a data of a test compound.

Sequence of human SGLT1 (P13866 whole entry): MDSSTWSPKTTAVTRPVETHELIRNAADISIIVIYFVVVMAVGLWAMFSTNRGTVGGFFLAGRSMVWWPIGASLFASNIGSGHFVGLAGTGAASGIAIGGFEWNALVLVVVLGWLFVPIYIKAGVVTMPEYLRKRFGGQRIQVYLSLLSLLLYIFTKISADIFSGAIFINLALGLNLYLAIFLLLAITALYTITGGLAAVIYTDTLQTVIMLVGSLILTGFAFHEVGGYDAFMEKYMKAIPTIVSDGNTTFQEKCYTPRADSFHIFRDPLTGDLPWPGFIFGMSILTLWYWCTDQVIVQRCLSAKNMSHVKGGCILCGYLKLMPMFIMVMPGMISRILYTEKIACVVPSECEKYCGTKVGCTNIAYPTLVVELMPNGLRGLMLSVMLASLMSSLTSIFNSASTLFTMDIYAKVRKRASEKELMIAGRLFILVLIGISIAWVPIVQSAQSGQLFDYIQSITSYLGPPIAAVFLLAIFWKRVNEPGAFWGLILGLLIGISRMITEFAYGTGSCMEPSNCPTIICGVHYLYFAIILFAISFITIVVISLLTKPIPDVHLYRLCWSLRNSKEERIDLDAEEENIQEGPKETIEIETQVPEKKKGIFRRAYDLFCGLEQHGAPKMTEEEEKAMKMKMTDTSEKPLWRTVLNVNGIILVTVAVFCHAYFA

SMILES	IC50 [nM]
C[C@H]1C(=O)NC[C@@H]1C(=O)Nc1cc(-c2cccc(OC(F)(F)F)c2)n(C2CCC(F)(F)CC2)n1 [Example 198]	67
C[C@H]1C(=O)NC[C@@H]1C(=O)Nc1cc(-c2cccc(OC(F)(F)F)c2)n(CC2CCOCC2)n1 [Example 200]	120
O=C1C[C@@H](C(=O)Nc2cc(-c3cccc(CO)c3)n(-c3ccccc3)n2)CN1 [Example 119]	570
CCc1cccc(-c2cc(NC(=O)[C@@H]3CNC(=O)C3)nn2-c2ccccc2)c1 [Example 44]	34
C[C@H]1C(=O)NC[C@@H]1C(=O)Nc1cc(-c2cccc(C(F)(F)F)c2)n(-c2ccccc2Cl)n1 [Example 203]	1.4
O=C1CCC(C(=O)Nc2cc(-c3cccc(OC(F)(F)F)c3)n(-c3ccc(F)cc3)n2)CN1 (single isomer, unassigned) [Example 165]	22
CCC(F)(F)c1cccc(-c2cc(NC(=O)[C@H]3CNC(=O)C3)nn2-c2ccccc2C)c1 [Example 144]	1.3
CCCc1cccc(-c2cc(NC(=O)C3CNC(=O)C3CCO)nn2-c2ccccc2)c1 (racemic) [Example 115]	41
O=C1C[C@@H](C(=O)Nc2cc(-c3cccc(O)c3)n(-c3ccccc3)n2)CN1 [Example 118]	9300
C[C@H]1C(=O)NC[C@@H]1C(=O)Nc1cc(-c2cccc(C(F)(F)F)c2)n(-c2ccccc2)n1 [Example 207]	4.7
CCCc1cccc(-c2cc(NC(=O)[C@@H]3CNC(=O)C3)nn2-c2ccc(Cl)cc2)c1 [Example 37]	16
Cc1ccc(-n2nc(NC(=O)[C@H]3CNC(=O)[C@@H]3C)cc2-c2cccc(OCC(F)(F)F)c2)cc1 [Example 217]	6.2
O=C1C[C@H](C(=O)Nc2cc(-c3cccc(C(F)(F)F)c3)n(-c3ccccc3)n2)CN1 [Example 28]	52
C[C@H]1C(=O)NC[C@@H]1C(=O)Nc1cc(-c2cccc(OC(F)(F)F)c2)n(-c2ccccc2)n1 [Example 1, (3R,4R)-4-methyl-5-oxopyrrolidine-3-carboxylic acid[1-phenyl-5-(3-trifluoromethoxyphenyl)-1H-pyrazol-3-yl]amide]	4
CCC(F)(F)c1cccc(-c2cc(NC(=O)[C@H]3CNC(=O)[C@@H]3C)nn2-c2cccc(F)c2)c1 [Example 170]	3
O=C1C[C@@H](C(=O)Nc2cc(-c3cccc(C(F)(F)F)c3)n(-c3ccccc3Cl)n2)CN1 [Example 205]	3.6
CC(C)(C)c1cccc(-c2cc(NC(=O)[C@H]3CNC(=O)C3)nn2CCc2ccccc2)c1 [Example 109]	65
C[C@H]1C(=O)NC[C@@H]1C(=O)Nc1cc(-c2cccc(OC(F)(F)F)c2)n(-c2cccc(F)c2)n1 [Example 3, (3R,4R)-4-methyl-5-oxopyrrolidine-3-carboxylic acid[1-(3-fluorophenyl)-5-(3-(trifluoromethoxy)phenyl)-1H-pyrazol-3-yl]amide]	6.2
O=C1C[C@@H](C(=O)Nc2cc(-c3cccc(C(F)(F)F)c3)n(-c3ccccc3F)n2)CN1 [Example 228]	8.6
O=C1C[C@@H](C(=O)Nc2cc(-c3cccc(OC(F)(F)F)c3)n(C3CCC(F)(F)CC3)n2)CN1 [Example 197]	180
O=C1C[C@@H](C(=O)Nc2cc(-c3cccc(OCCC(F)(F)F)c3)n(-c3ccccc3)n2)CN1 [Example 149]	9.5
C[C@H]1C(=O)NC[C@@H]1C(=O)Nc1cc(-c2cccc(OC(F)(F)F)c2)n(-c2ccccc2F)n1 [Example 166]	2.9

same assay, conditions: 14C-AMG uptake, CHO-K1 cells stably expressing human SGLT1

SMILES	IC50 [nM]
CCCc1cccc(-c2cc(NC(=O)[C@H]3CNC(=O)N3CCC)nn2-c2ccccc2)c1 [Example 304]	10
O=C1C[C@H](C(=O)Nc2cc(-c3cc(F)cc(COCC(F)(F)F)c3)n(-c3ccccc3F)n2)CN1 [Example 519]	13
C[C@@H](OCc1cc(F)cc(-c2cc(NC(=O)[C@@H]3CNC(=O)C3)nn2-c2ccccc2Cl)c1)C(F)(F)F [Example 513]	3.2
COCCOc1cccc(-n2nc(NC(=O)[C@@H]3CNC(=O)C3)cc2-c2cccc(COCC(F)(F)F)c2)c1 [Example 450]	8.1
CCCc1cccc(-c2cc(NC(=O)[C@@H]3CNC(=O)C3)nn2-c2ccc(OC(C)C)cc2)c1 [Example 373]	5.3
CC(C)(C)/C=C/c1cccc(-c2cc(NC(=O)[C@@H]3CNC(=O)C3)nn2-c2ccccc2)c1 [Example 531]	30
CCCc1cccc(-c2cc(NC(=O)[C@H]3CNC(=O)N3CC(F)(F)F)nn2-c2ccccc2)c1 [Example 385]	7
O=C1C[C@H](C(=O)Nc2cc(-c3cccc(COCCC(F)(F)F)c3)n(-c3ccccc3)n2)CN1 [Example 281]	21.5
C[C@@H](OCc1cccc(-c2cc(NC(=O)[C@H]3CNC(=O)N3)nn2-c2ccccc2)c1)C(F)(F)F [Example 365]	18
CCCc1cccc(-c2cc(NC(=O)[C@@H]3CNC(=O)C3)nn2-c2cccc(C)c2C)c1 [Example 323]	4.8
CCCc1cccc(-c2cc(NC(=O)C3CC(=O)NC3C)nn2-c2ccccc2)c1 (single isomer, unassigned) [Example 404]	18
CC(C)(C)OCc1cccc(-c2cc(NC(=O)[C@@H]3CNC(=O)C3)nn2-c2ccccc2)c1 [Example 313]	19.5
O=C1NC[C@H](C(=O)Nc2cc(-c3cccc(OC(F)(F)F)c3)n(-c3ccccc3)n2)N1 [Example 267]	81
CC(C)Oc1cccc(-n2nc(NC(=O)[C@@H]3CNC(=O)C3)cc2-c2cccc(CO[C@H](C)C(F)(F)F)c2)c1 [Example 454]	2
CC(C)Oc1cc(F)cc(-n2nc(NC(=O)[C@@H]3CNC(=O)C3)cc2-c2cccc(CO[C@H](C)C(F)(F)F)c2)c1 [Example 535]	2.8
O=C1C[C@H](C(=O)Nc2cc(-c3cc(Cl)cc(COC(C(F)(F)F)C(F)(F)F)c3)n(-c3ccccc3)n2)CN1 [Example 579]	23
CCC(CC)OCc1cccc(-c2cc(NC(=O)[C@@H]3CNC(=O)C3)nn2-c2ccccc2)c1 [Example 332]	22
CC(C)(OCc1cccc(-c2cc(NC(=O)[C@@H]3CNC(=O)C3)nn2-c2ccc(Cl)cc2)c1)C(F)(F)F [Example 575]	12
CCCO[C@@H](C)c1cccc(-c2cc(NC(=O)[C@@H]3CNC(=O)C3)nn2-c2ccccc2)c1 [Example 396]	31
O=C1NC[C@@H](C(=O)Nc2cc(-c3cccc(COCC(F)(F)F)c3)n(-c3ccccc3)n2)N1 [Example 558]	38
CC(C)(C)COc1cccc(-c2cc(NC(=O)[C@@H]3CNC(=O)C3)nn2-c2ccccc2)c1 [Example 288]	11.5

same assay, conditions: CHO-K1, at 0.1 uM

SMILES	inhibition at 0.1 µM [%]
CC1C(=O)NC(O)C1C(=O)Nc1cc(-c2cccc(OC(F)(F)F)c2)n(-c2ccc(F)cc2)n1 (racemic) [Example 259]	20
O=C1C[C@H](C(=O)Nc2cc(-c3cccc(CO[C@H]4CCCOC4)c3)n(-c3ccccc3)n2)CN1 [Example 539]	35
O=C1C[C@H](C(=O)Nc2cc(-c3cccc(COC4CCOCC4)c3)n(-c3ccccc3)n2)CN1 [Example 543]	15
O=C1COC(C(=O)Nc2cc(-c3cccc(OC(F)(F)F)c3)n(-c3ccccc3)n2)CN1 (stereo not drawn) [Example 276]	30

same assay, conditions: CHO-K1, at 0.3 uM

SMILES	inhibition at 0.3 µM [%]
O=C1C[C@@H](C(=O)Nc2cc(-c3cccc(OC(F)(F)F)c3)n(CC3CCOCC3)n2)CN1 [Example 199]	40

same assay, conditions: CHO-K1, at 1 uM

SMILES	inhibition at 1 µM [%]
CCCc1cc(C(=O)O)cc(-c2cc(NC(=O)[C@H]3CNC(=O)C3)nn2-c2ccccc2)c1 [Example 145]	43

same assay, conditions: at 0.1 uM

SMILES	human SGLT1 % Inhibition [%]
CCCc1cccc(-c2cc(NC(=O)C3CNC(=O)CO3)nn2-c2ccccc2)c1 (stereo not drawn) [Example 277]	48

same assay, conditions: at 0.3 uM

SMILES	human SGLT1 % Inhibition [%]
CCCc1cccc(-c2cc(NC(=O)C3CCCC(=O)NC3)nn2-c2ccccc2)c1 (stereo not drawn) [Example 255]	7
